Data: the supplement of paper PMC7840683
Where a name gives a salt, the structure may show the parent alone.

System: HepaRG
Assay: LDH release cytotoxicity, % of total lysis control; higher = more cytotoxic
Conditions: 48 h
Outline: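 Single-lot HepaRG cells in collagen I-coated 96-well plates were treated for 48 h in serum-free induction medium containing 0.5% DMSO with test chemicals in eight-point half-log series up to 100 µM. For total lysis, wells received 0.1% Triton X. LDH in 50 µL spent medium was assayed by resorufin fluorescence with CytoTox-ONE. Percent cytotoxicity was normalized to the on-plate vehicle and total lysis controls, with duplicates averaged.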

O=c1n(Cl)c(=O)n(Cl)c(=O)n1Cl [Symclosene]
Conditions | LDH release cytotoxicity [%]
0.03162 µM | -1.22
0.1 µM | -0.82
0.3162278 µM | -0.254
1 µM | -0.453
3.16228 µM | 0.284
10 µM | 1.48
31.6228 µM | 0.324
100 µM | 2.44

CCCN(CCC)c1c([N+](=O)[O-])cc(S(N)(=O)=O)cc1[N+](=O)[O-] [Oryzalin]
Conditions | LDH release cytotoxicity [%]
0.03162 µM | -2.37
0.1 µM | -2.04
0.3162278 µM | -0.725
1 µM | -1.89
3.16228 µM | -2.11
10 µM | -2.88
31.6228 µM | -1.72
100 µM | 77.1

O=c1[nH]sc2ccccc12 [1,2-Benzisothiazolin-3-one]
Conditions | LDH release cytotoxicity [%]
0.0327296 µM | -0.0461
0.1035 µM | -0.556
0.327296 µM | -0.331
1.035 µM | -0.299
3.27296 µM | -0.612
10.35 µM | -0.701
32.729574 µM | 0.567
103.5 µM | 2.85

CN(C)c1ccc(Cc2ccc(N(C)C)cc2)cc1 [4,4'-Methylenebis(N,N-dimethylaniline)]
Conditions | LDH release cytotoxicity [%]
0.03162 µM | -0.47
0.1 µM | -1.28
0.3162278 µM | -1.73
1 µM | -1.6
3.16228 µM | -1.29
10 µM | -1.04
31.6228 µM | -0.536
100 µM | 0.0839

CCCCCCCCCCCCCCOS(=O)(=O)O [Sodium myristyl sulfate]
Conditions | LDH release cytotoxicity [%]
0.03162 µM | -2.12
0.1 µM | -2.09
0.3162278 µM | -2.4
1 µM | -2.13
3.16228 µM | -2.25
10 µM | -1.43
31.6228 µM | -1.69
100 µM | 12.5

C#CCC1=C(C)C(OC(=O)C2C(C=C(C)C)C2(C)C)CC1=O (configuration not stated) [Prallethrin]
Conditions | LDH release cytotoxicity [%]
0.0314647 µM | -1.54
0.0995 µM | -0.874
0.3146466 µM | -2.55
0.995 µM | -2.33
3.14647 µM | -1.9
9.95 µM | -1.44
31.4647 µM | -2.39
99.5 µM | 3.9

CC(C)CCCCCCCOC(=O)c1ccccc1C(=O)OCCCCCCCC(C)C
Conditions | LDH release cytotoxicity [%]
0.03162 µM | -1.32
0.1 µM | -1.15
0.3162278 µM | -1.36
1 µM | -1.26
3.16228 µM | -0.979
10 µM | -0.985
31.6228 µM | -0.631
100 µM | 0.487

CC(=O)SC(C(=O)NC1Cc2ccccc2C2CCCC(C(=O)O)N2C1=O)C(C)C (configuration not stated) [Ilepatril]
Conditions | LDH release cytotoxicity [%]
0.03162 µM | -3.01
0.1 µM | -3.51
0.3162278 µM | -2.73
1 µM | -2.08
3.16228 µM | -2.73
10 µM | -1.99
31.6228 µM | -1.05
100 µM | -0.123

CN(C)c1nc(=O)n(C2CCCCC2)c(=O)n1C [Hexazinone]
Conditions | LDH release cytotoxicity [%]
0.03162 µM | -1.77
0.1 µM | -1.77
0.3162278 µM | 0.416
1 µM | -2.14
3.16228 µM | -0.406
10 µM | -0.642
31.6228 µM | -1.37
100 µM | 0.813
